Values quoted from earlier work, collected in patent US20170304358A1, “PRIMARY AND SECONDARY PREVENTION OF DEMENTIAS AND SUICIDE WITH TRACE DOSE LITHIUM” (priority 2014, published 2017).

What was measured:
[1] = test system: cognition in persons with MCI; conditions: micro-doses (<0.28 mg/d of lithium carbonate)
[2] = standard doses of lithium

Structure (SMILES)	benefit for cognition in MCI [1]	adverse side effects [2]
O=C([O-])[O-].[Li+].[Li+] [Lithium carbonate, lithium carbonate]	some benefit for cognition	
[Li] [lithium]		renal toxicity
